This is an account of results in patent US20250169495A1, “COMPOSITIONS AND METHODS FOR CONTROLLING DROSOPHILA FLIES” (Rutgers, The State University of New Jersey, priority 2023, published 2025).

The subject of assay [1] is Drosophila suzukii. Nature of the assay: Semi-field cage oviposition deterrence, potted blueberry bushes. Format: in vivo. The conditions noted are these: N=10; for fewer eggs laid in treated berries than in control berries: sachet 2.5 mL, 24 h. Here is the method: Semi-field cage experiments were conducted from June until July to evaluate the oviposition deterrent effects of ethyl butanoate, ethyl (E)-but-2-enoate, and 2-pentylfuran against D. suzukii. These experiments are considered semi-field because they took place in an isolated open field surrounded by woods with potted plants inside outdoor cages. The cages were constructed using polyvinyl chloride (PVC) pipes (3.8 cm diameter) to construct 1.8 m×1.8 m×1.8 m frames. Screen tents (Lumite® screen portable field cages; BioQuip, CA, USA) were placed over the PVC frames, and large nails were used to secure the tents to the ground (FIG. 6A). Cages were spaced 10 m apart. To obtain blueberries for the experiment, prior to the start of the experiment, field-grown highbush blueberry (Vaccinium corymbosum L. var. ‘Bluecrop’) clusters were bagged early in the season with cloth bags when they were still green to prevent infestation from resident D. suzukii populations for use in the experiment. In addition, 80 3-to-4-year-old potted blueberry bushes were stripped of their berries and used for the experiment. On the day of testing, two bushes were placed in each cage (FIG. 6B). Each bush in the tent was surrounded by a metal tomato cage. The bagged blueberry fruit clusters in the field were clipped and brought inside the cages. Clusters of 10 berries were created and placed in water picks. Five berry clusters were distributed randomly and evenly on each tomato cage at different heights using green twist ties (FIG. 6B). The sachets used for the treatments were prepared according to the methods described by Gale et al. (2024). They were constructed from 8 cm strips of polyethylene tubing (5.1 cm width, 2 MIL thickness; ULINE, Pleasant Prairie, WI, USA) and polyester felt (Grainger, Lake Forest, IL, USA). One end of the polyethylene tubing was sealed with an impulse sealer. A 5 cm strip of felt was placed inside the sachet's open end, and a 2.5 mL aliquot of each treatment was pipetted onto the felt. The open end was then sealed shut with the impulse sealer, entirely sealing the saturated felt. A hole was punched at the top of each sachet, away from the treatment area to avoid damaging the sealed section, and green twist ties were used to hang the sachets in the center of a bush (FIG. 6B). Before loading the sachets, the weights of the empty sachets were taken. The sachets were weighed again directly after loading with the compounds and then a final time after the 24-hour test period to measure the emission rates of each volatile. In each cage, one of the bushes contained a sachet with the test volatile, while the other contained a blank sachet (control). Sachets were hung in the bushes 30 minutes prior to the start of experiments. Choice tests included: 1) control versus control; 2) control versus ethyl butanoate; […]) control versus ethyl (E)-but-2-enoate; and 4) control versus 2-pentylfuran. Fifty flies (1:1 male: female) were released in each cage at 18:00 hrs. After 24 hours, the berry clusters were collected and placed in 118 mL plastic cups. Berries were inspected under a dissection microscope for the number of eggs laid and were then incubated in 236.6 mL (8-oz) deli containers lined with two cotton pads on a laboratory bench at 22±2° C. and 55±5% relative humidity for two weeks to monitor for adult emergence. The study was replicated 10 times for each choice combination (N=4 choice combinations×2 bushes each×10 replicates=total of 80 bushes; N=50 flies×4 choice combinations×10 replicates=total of 2,000 flies). Semi-field cage data were analyzed using paired t-tests to determine differences between the number of eggs laid and adults that emerged from treated berries compared to control berries, and survival data were analyzed using two-way analysis of variance (ANOVA) (R statistical software version 4.1.1; R Development Core Team, Vienna, Austria). […]

In assay [2] the test system is Drosophila suzukii adults. Briefly: Multiple choice bioassay #2: known and putative repellents. The class given is in vivo. The conditions noted are these: 50 μL neat; six traps per arena; 24 h; n=6. The procedure: Within each arena, six gated traps were positioned randomly in a circle (40 cm diameter) at equal distance with each trap 20 cm apart along the circumference. Each gated trap contained ˜5 g of store-bought organic blueberry fruit (n=5), as described elsewhere herein. One of the six traps served as a control (with blueberry fruit only) and the remaining five traps had one of the repellents added to the blueberry fruit. Each volatile (50 μL, neat) was released from a 1 mL polyethylene vial with a piece of cotton placed inside each trap (control traps had vials with cotton but without the volatile). A vial with a cotton ball soaked with deionized water was placed in the middle of the arena. Roughly 150 D. suzukii adults (1:1 male: female ratio) were released inside each arena and the number and sex of flies inside treatment and control traps was recorded after 24 h. The experiment started at 1:00 p.m., was replicated 6 times, and was done in a laboratory under 22±2° C., 55±5% RH, 16:8 (L:D) h. Data from multiple choice assays on the percent of male and female D. suzukii adults responding to each volatile were compared using ANOVA (Minitab version 17; Minitab Inc., State College, PA, USA). The ANOVA model included treatment, sex, and their interaction as fixed factors and block (replicate) as a random factor. A multi-comparison Tukey test (Minitab) was used to determine differences among treatments. Percent data were arcsine square-root transformed prior to ANOVA. Pairwise choice assays were analyzed using G-tests with William's correction. Non-responders were excluded from the statistical analyses.

Structures are written as SMILES.

Turning to `CCCC(=O)OCC` [ethyl butanoate], in assay [1], the “deterrence index (DI) based on number of eggs laid” value (from here on “deterrence index (DI) based”) was “performed similarly and were significantly different from the control”; the “fewer eggs laid in treated berries than in control berries” value (from here on “fewer eggs laid in treated berries than”) came to 54%. Moreover, the “fewer flies (adult progeny) emerging from treated berries than from control berries” value in assay [1] (berries incubated two weeks) was 59%.
`C/C=C/C(=O)OCC` [ethyl (E)-but-2-enoate]: the “strength of repellency among the five repellents (rank)” value in assay [2] was “the most repellent”. In assay [1], the “deterrence index (DI) based” value was “performed similarly and were significantly different from the control”; the “fewer eggs laid in treated berries than” value was determined as 75%. The “fewer flies (adult progeny) emerging from treated berries than from control berries” value in assay [1] (berries incubated two weeks) worked out at 78%.
Regarding `CCCCCc1ccco1` [2-pentylfuran, reference compound], in assay [2], the “strength of repellency among the five repellents (rank)” value is recorded as “the least repellent”. For the same molecule, in assay [1], the “deterrence index (DI) based” value is “performed similarly and were significantly different from the control”; the “fewer eggs laid in treated berries than” value was 67%. For the same molecule, the “difference in adult emergence between untreated and treated berries” value in assay [1] (berries incubated two weeks) was “nonsignificant”.
